Data taken from patent publication US10093627B2, “Tetrahydroquinoline derivatives and their use as Epac inhibitors” (Institut National de la Sante et de la Recherche Medicale …, priority 2012, dated 2018).

Assays:
Epac2(AB) = molecular target: T1, Epac2(AB) (Homo sapiens, UniProt Q8WZA2); assay: In vitro GEF activity (initial velocity of GDP exchange on Rap1A) of Epac2(AB); type: biochemical; conditions: 50 μM racemic CE3F4; agonist 50 μM 007 or 300 μM cAMP; FIG. 6A
T1 construct: Human Epac2(AB) (amino acids 43-1011) carries both the CNB-A and the CNB-B domains; made in house; host or cells: Escherichia coli Rosetta 2(DE3)
T1 sequence (Q8WZA2 43-1011): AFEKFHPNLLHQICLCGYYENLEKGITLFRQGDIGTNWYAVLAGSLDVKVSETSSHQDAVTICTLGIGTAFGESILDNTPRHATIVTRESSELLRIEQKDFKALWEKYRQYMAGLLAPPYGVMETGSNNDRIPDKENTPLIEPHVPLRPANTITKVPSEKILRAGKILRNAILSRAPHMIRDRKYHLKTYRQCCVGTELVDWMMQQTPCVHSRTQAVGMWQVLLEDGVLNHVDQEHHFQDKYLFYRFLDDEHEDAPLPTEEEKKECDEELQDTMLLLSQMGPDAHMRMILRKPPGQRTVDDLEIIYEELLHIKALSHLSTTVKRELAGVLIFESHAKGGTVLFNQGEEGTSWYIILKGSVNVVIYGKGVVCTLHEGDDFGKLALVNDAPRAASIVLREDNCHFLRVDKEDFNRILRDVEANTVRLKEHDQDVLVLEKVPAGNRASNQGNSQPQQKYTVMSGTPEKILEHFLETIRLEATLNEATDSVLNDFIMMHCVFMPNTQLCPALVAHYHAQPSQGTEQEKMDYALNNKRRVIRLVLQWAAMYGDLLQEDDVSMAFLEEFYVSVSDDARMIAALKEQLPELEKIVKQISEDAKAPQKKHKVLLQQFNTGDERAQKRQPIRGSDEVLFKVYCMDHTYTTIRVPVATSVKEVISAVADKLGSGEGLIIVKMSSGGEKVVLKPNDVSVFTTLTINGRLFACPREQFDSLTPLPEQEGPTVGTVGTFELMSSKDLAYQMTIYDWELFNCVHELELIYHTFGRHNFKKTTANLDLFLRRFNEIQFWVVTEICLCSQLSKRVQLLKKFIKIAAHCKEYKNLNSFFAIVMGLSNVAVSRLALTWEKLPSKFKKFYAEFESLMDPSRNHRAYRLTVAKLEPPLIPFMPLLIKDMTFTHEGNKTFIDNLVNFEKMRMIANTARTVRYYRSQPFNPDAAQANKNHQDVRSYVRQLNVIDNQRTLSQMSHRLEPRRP
From the text: Human Epac2(AB) (amino acids 43-1011) carries both the CNB-A and the CNB-B domains. Human Epac2(B) (amino acids 283-1011) lacks the first 283 amino acids of Epac2. It is therefore deleted of its CNB-A and DEP domains, but retains the CNB-B domain and the full catalytic region. Epac2(AB) was obtained by HindIII/NotI restriction and Epac2(B) was obtained by Ssp1/Not1 restriction of a human Epac2A cDNA (a gift from Ann M Graybiel, Department of Brain and Cognitive Sciences, MIT, Cambridge). Both cDNA fragments were inserted into pET41a (Novagen), expressed in Escherichia coli Rosetta 2(DE3) (Novagen), and the GST-tagged fusion proteins were purified by nickel-nitrilotriacetic acid beads (Qiagen), as described in D. Courilleau, et al., Identification of a tetrahydroquinoline analog as a pharmacological inhibitor of the cAMP-binding protein Epac, J. Biol. Chem. 287 (2012) 44192-44202).
In vitro GDP exchange catalyzed by Epac was measured using purified recombinant Epac isoforms and Rap1A loaded with Bodipy-GDP, as described in D. Courilleau, et al (above mentioned). […] The release of Bodipy-GDP was measured in real time as the decay of fluorescence. […] The initial velocity (Vi) of GDP exchange on Rap1 was calculated as described in D. Courilleau et al.).
Data are expressed as mean±S.D. Differences in quantitative variables were examined by unpaired one- or two-tailed Student's t test. […]

[1] = test system: Epac1-induced H-Ras activation in rat neonatal cardiac myocytes; assay: Epac1-induced H-Ras activation, H-Ras-GTP pull-down in rat neonatal cardiac myocytes; type: cell-based; conditions: rat neonatal cardiac myocytes transfected with Epac1; CE3F4 30 min; Sp-007 10 μM, 10 min; FIG. 3B
Procedure: The effects of CE3F4 to prevent Epac1-induced H-Ras activation was determined by extraction of GTP-loaded H-Ras from cell lysates with the immobilized Ras-binding domain of Raf1.
HEK293 cells (FIG. 3A) or rat neonatal cardiac myocytes (FIG. 3B) were transfected with Epac1. 24 h after transfection, cells were preincubated or not with CE3F4 for 30 min and were then treated or not with Sp-007 (10 μM) for 10 min. In FIG. 3C, HEK293 cells overexpressing β1-AR and transfected with Epac1 were pretreated or not with 20 μM of CE3F4 for 30 min and stimulated or not with Iso for 10 min. Amounts of H-Ras-GTP were determined by pull-down assays. The bar graph represents the mean±S.E.M. of 5 (FIG. 3A) or 2 (FIG. 3B, 3C) independent experiments. Results are expressed as the percentage of unstimulated control cells.
Cardiac myocytes were isolated as previously described by Wollert and colleagues (1996). HEK293 cells stably expressing the β1-adrenergic receptor (β1-AR) was a gift of Dr. Shenoy (Duke University). HEK293 cells were maintained in MEM with FBS (Foetal Bovine Serum; 10%) and penicillin-streptomycin (1%). All media, sera and antibiotics used in cell culture were purchased from Invitrogen (Cergy Pontoise, France). […]

## CC1CCc2c(cc(Br)c(F)c2Br)N1C=O (racemic) [CE3F4]
Epac2(AB)
  Inhibitory effect on GEF activity of Epac2(AB), compared with Epac2(B): no significant difference
[1]
  Amount of Ras-GTP induced by Sp-007: decreased
